Laboratory results reported in publication PMC5622171 (Nature Communications, 2017).

What was measured:
Test in all cases: KINOMEscan kinase profiling
Assay type in all cases: binding
CSNK1A1 = target: T1, CSNK1A1 (Homo sapiens, UniProt P48729); settings: read-out: %Inhibition by 10 μM SPA70
T1 construct: purchased DiscoverX (Ambit Biosciences) KINOMEscan
In short: (§1)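 KINOMEscan profiling followed a published protocol. Kinases whose inhibition exceeded a set cut-off were then tested in a dilution series beginning at 30 µM.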

PCTK3 = target: T2, PCTK3 (Homo sapiens, UniProt Q07002); settings: read-out: %Inhibition by 10 μM SPA70
T2 construct: purchased DiscoverX (Ambit Biosciences) KINOMEscan
In short: as §1

MAPKAPK5 = target: T3, MAPKAPK5 (Homo sapiens, UniProt Q8IW41); settings: read-out: %Inhibition by 10 μM SPA70
T3 construct: purchased DiscoverX (Ambit Biosciences) KINOMEscan
In short: as §1

RIOK2 = target: T4, RIOK2 (Homo sapiens, UniProt Q9BVS4); settings: read-out: %Inhibition by 10 μM SPA70
T4 construct: purchased DiscoverX (Ambit Biosciences) KINOMEscan
In short: as §1

TBK1 = target: T5, TBK1 (Homo sapiens, UniProt Q9UHD2); settings: read-out: %Inhibition by 10 μM SPA70
T5 construct: purchased DiscoverX (Ambit Biosciences) KINOMEscan
In short: as §1

TXK = target: T6, TXK (Homo sapiens, UniProt P42681); settings: read-out: %Inhibition by 10 μM SPA70
T6 construct: purchased DiscoverX (Ambit Biosciences) KINOMEscan
In short: as §1

PAK2 = target: T7, PAK2 (Homo sapiens, UniProt Q13177); settings: read-out: %Inhibition by 10 μM SPA70
T7 construct: purchased DiscoverX (Ambit Biosciences) KINOMEscan
In short: as §1

PRKCI = target: T8, PRKCI (Homo sapiens, UniProt P41743); settings: read-out: %Inhibition by 10 μM SPA70
T8 construct: purchased DiscoverX (Ambit Biosciences) KINOMEscan
In short: as §1

SNARK = target: T9, SNARK (Homo sapiens, UniProt Q9H093)
T9 construct: purchased DiscoverX (Ambit Biosciences) KINOMEscan
In short: as §1

MAP3K15 = target: T10, MAP3K15 (Homo sapiens, UniProt Q6ZN16); settings: read-out: %Inhibition by 10 μM SPA70
T10 construct: purchased DiscoverX (Ambit Biosciences) KINOMEscan
In short: as §1

AURKC = target: T11, AURKC (Homo sapiens, UniProt Q9UQB9); settings: read-out: %Inhibition by 10 μM SPA70
T11 construct: purchased DiscoverX (Ambit Biosciences) KINOMEscan
In short: as §1

PCTK1 = target: T12, PCTK1 (Homo sapiens, UniProt Q00536); settings: read-out: %Inhibition by 10 μM SPA70
T12 construct: purchased DiscoverX (Ambit Biosciences) KINOMEscan
In short: as §1

JNK3 = target: T13, JNK3 (Homo sapiens, UniProt P53779)
T13 construct: purchased DiscoverX (Ambit Biosciences) KINOMEscan
In short: as §1

TAOK2 = target: T14, TAOK2 (Homo sapiens, UniProt Q9UL54); settings: read-out: %Inhibition by 10 μM SPA70
T14 construct: purchased DiscoverX (Ambit Biosciences) KINOMEscan
In short: as §1

ARK5 = target: T15, ARK5 (Homo sapiens, UniProt O60285)
T15 construct: purchased DiscoverX (Ambit Biosciences) KINOMEscan
In short: as §1

PRKD2 = target: T16, PRKD2 (Homo sapiens, UniProt Q9BZL6); settings: read-out: %Inhibition by 10 μM SPA70
T16 construct: purchased DiscoverX (Ambit Biosciences) KINOMEscan
In short: as §1

MYLK2 = target: T17, MYLK2 (Homo sapiens, UniProt Q9H1R3); settings: read-out: %Inhibition by 10 μM SPA70
T17 construct: purchased DiscoverX (Ambit Biosciences) KINOMEscan
In short: as §1

CDC2L1 = target: T18, CDC2L1 (Homo sapiens, UniProt P21127); settings: read-out: %Inhibition by 10 μM SPA70
T18 construct: purchased DiscoverX (Ambit Biosciences) KINOMEscan
In short: as §1

MUSK = target: T19, MUSK (Homo sapiens, UniProt O15146); settings: read-out: %Inhibition by 10 μM SPA70
T19 construct: purchased DiscoverX (Ambit Biosciences) KINOMEscan
In short: as §1

CDK9 = target: T20, CDK9 (Homo sapiens, UniProt P50750); settings: read-out: %Inhibition by 10 μM SPA70
T20 construct: purchased DiscoverX (Ambit Biosciences) KINOMEscan
In short: as §1

CDK4-cyclinD3 = target: T21, CDK4-cyclinD3 (Homo sapiens, UniProt P11802); settings: read-out: %Inhibition by 10 μM SPA70
T21 construct: purchased DiscoverX (Ambit Biosciences) KINOMEscan
In short: as §1

[1] = target: T22, RPS6KA4(Kin.Dom.1-N-terminal) (Homo sapiens, UniProt O75676); settings: read-out: %Inhibition by 10 μM SPA70
T22 construct: RPS6KA4(Kin.Dom.1-N-terminal); purchased DiscoverX (Ambit Biosciences) KINOMEscan
In short: as §1

CAMK4 = target: T23, CAMK4 (Homo sapiens, UniProt Q16566); settings: read-out: %Inhibition by 10 μM SPA70
T23 construct: purchased DiscoverX (Ambit Biosciences) KINOMEscan
In short: as §1

EPHB3 = target: T24, EPHB3 (Homo sapiens, UniProt P54753); settings: read-out: %Inhibition by 10 μM SPA70
T24 construct: purchased DiscoverX (Ambit Biosciences) KINOMEscan
In short: as §1

AXL = target: T25, AXL (Homo sapiens, UniProt P30530); settings: read-out: %Inhibition by 10 μM SPA70
T25 construct: purchased DiscoverX (Ambit Biosciences) KINOMEscan
In short: as §1

FGFR1 = target: T26, FGFR1 (Homo sapiens, UniProt P11362); settings: read-out: %Inhibition by 10 μM SPA70
T26 construct: purchased DiscoverX (Ambit Biosciences) KINOMEscan
In short: as §1

MEK5 = target: T27, MEK5 (Homo sapiens, UniProt Q13163); settings: read-out: %Inhibition by 10 μM SPA70
T27 construct: purchased DiscoverX (Ambit Biosciences) KINOMEscan
In short: as §1

ACVR2B = target: T28, ACVR2B (Homo sapiens, UniProt Q13705)
T28 construct: purchased DiscoverX (Ambit Biosciences) KINOMEscan
In short: as §1

BLK = target: T29, BLK (Homo sapiens, UniProt P51451); settings: read-out: %Inhibition by 10 μM SPA70
T29 construct: purchased DiscoverX (Ambit Biosciences) KINOMEscan
In short: as §1

PKN2 = target: T30, PKN2 (Homo sapiens, UniProt Q16513); settings: read-out: %Inhibition by 10 μM SPA70
T30 construct: purchased DiscoverX (Ambit Biosciences) KINOMEscan
In short: as §1

[2] = target: T31, RSK2(Kin.Dom.1-N-terminal) (Homo sapiens, UniProt P51812); settings: read-out: %Inhibition by 10 μM SPA70
T31 construct: RSK2(Kin.Dom.1-N-terminal); purchased DiscoverX (Ambit Biosciences) KINOMEscan
In short: as §1

[3] = target: T32, RSK3(Kin.Dom.1-N-terminal) (Homo sapiens, UniProt Q15349); settings: read-out: %Inhibition by 10 μM SPA70
T32 construct: RSK3(Kin.Dom.1-N-terminal); purchased DiscoverX (Ambit Biosciences) KINOMEscan
In short: as §1

MKNK2 = target: T33, MKNK2 (Homo sapiens, UniProt Q9HBH9); settings: read-out: %Inhibition by 10 μM SPA70
T33 construct: purchased DiscoverX (Ambit Biosciences) KINOMEscan
In short: as §1

EPHB2 = target: T34, EPHB2 (Homo sapiens, UniProt P29323)
T34 construct: purchased DiscoverX (Ambit Biosciences) KINOMEscan
In short: as §1

DCAMKL3 = target: T35, DCAMKL3 (Homo sapiens, UniProt Q9C098); settings: read-out: %Inhibition by 10 μM SPA70
T35 construct: purchased DiscoverX (Ambit Biosciences) KINOMEscan
In short: as §1

MARK3 = target: T36, MARK3 (Homo sapiens, UniProt P27448); settings: read-out: %Inhibition by 10 μM SPA70
T36 construct: purchased DiscoverX (Ambit Biosciences) KINOMEscan
In short: as §1

MYO3A = target: T37, MYO3A (Homo sapiens, UniProt Q8NEV4); settings: read-out: %Inhibition by 10 μM SPA70
T37 construct: purchased DiscoverX (Ambit Biosciences) KINOMEscan
In short: as §1

[4] = target: T38, JAK1(JH1domain-catalytic) (Homo sapiens, UniProt P23458)
T38 construct: JAK1(JH1domain-catalytic); purchased DiscoverX (Ambit Biosciences) KINOMEscan
In short: as §1

DAPK1 = target: T39, DAPK1 (Homo sapiens, UniProt P53355); settings: read-out: %Inhibition by 10 μM SPA70
T39 construct: purchased DiscoverX (Ambit Biosciences) KINOMEscan
In short: as §1

CAMK1D = target: T40, CAMK1D (Homo sapiens, UniProt Q8IU85); settings: read-out: %Inhibition by 10 μM SPA70
T40 construct: purchased DiscoverX (Ambit Biosciences) KINOMEscan
In short: as §1

T3 sequence (Q8IW41 whole entry): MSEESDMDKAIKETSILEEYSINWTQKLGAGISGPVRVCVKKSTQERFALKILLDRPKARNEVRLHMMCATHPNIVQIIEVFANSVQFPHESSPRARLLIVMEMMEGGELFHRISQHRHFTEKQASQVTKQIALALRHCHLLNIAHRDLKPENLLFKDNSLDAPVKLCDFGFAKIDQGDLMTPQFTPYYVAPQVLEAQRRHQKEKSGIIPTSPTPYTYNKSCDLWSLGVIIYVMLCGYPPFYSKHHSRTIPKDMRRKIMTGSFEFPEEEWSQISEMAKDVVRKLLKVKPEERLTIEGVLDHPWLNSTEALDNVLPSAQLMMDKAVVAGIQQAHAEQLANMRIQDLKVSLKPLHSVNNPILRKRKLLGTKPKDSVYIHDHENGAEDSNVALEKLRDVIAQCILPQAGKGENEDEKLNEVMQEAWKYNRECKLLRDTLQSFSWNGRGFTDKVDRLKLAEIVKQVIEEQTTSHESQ
T13 sequence (P53779 whole entry): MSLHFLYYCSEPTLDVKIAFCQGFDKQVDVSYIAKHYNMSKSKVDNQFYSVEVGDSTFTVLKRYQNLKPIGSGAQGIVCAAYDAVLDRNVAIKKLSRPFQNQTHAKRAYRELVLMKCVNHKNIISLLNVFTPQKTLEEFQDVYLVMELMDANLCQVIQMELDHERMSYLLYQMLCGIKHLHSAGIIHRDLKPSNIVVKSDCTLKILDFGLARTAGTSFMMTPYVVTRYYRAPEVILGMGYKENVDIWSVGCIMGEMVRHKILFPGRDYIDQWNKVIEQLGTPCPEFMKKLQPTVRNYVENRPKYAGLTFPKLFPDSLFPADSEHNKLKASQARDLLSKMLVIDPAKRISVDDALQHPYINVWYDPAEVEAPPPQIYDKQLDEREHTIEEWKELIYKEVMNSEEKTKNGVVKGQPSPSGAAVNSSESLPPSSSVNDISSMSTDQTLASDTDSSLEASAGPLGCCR
T22 sequence (O75676 1-371 limits assumed): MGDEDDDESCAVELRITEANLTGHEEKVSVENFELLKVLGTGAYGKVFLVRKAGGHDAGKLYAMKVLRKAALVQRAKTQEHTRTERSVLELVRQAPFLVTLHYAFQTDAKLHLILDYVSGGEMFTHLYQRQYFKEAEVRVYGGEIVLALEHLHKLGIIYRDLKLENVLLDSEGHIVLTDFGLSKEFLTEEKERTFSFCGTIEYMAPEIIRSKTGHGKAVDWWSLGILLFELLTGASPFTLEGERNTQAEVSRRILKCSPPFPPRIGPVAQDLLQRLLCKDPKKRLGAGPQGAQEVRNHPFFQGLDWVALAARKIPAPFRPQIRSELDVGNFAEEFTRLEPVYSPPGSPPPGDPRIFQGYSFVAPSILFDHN
T16 sequence (Q9BZL6 whole entry): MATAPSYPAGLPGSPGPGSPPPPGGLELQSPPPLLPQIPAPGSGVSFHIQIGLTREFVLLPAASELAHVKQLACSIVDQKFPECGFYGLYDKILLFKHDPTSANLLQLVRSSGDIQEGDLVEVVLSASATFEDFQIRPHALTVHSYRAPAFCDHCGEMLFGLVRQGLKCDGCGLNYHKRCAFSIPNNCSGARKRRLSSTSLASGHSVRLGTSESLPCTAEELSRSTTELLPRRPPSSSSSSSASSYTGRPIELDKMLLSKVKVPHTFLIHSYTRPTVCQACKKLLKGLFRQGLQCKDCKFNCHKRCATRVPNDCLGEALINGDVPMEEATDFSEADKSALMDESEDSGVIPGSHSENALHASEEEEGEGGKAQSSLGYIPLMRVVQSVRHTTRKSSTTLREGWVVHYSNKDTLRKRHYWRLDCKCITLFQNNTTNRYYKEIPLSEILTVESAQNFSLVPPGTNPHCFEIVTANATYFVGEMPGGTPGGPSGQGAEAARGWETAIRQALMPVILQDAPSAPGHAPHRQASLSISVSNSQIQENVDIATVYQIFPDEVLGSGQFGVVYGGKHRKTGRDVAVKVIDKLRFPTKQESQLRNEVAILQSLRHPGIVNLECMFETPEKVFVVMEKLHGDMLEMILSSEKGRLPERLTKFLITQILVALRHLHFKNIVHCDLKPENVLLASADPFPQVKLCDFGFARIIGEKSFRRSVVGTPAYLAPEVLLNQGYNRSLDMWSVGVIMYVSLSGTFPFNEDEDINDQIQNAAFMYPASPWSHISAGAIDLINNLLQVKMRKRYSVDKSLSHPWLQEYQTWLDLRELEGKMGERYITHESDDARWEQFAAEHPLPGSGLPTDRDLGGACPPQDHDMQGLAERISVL
T21 sequence (P11802 whole entry): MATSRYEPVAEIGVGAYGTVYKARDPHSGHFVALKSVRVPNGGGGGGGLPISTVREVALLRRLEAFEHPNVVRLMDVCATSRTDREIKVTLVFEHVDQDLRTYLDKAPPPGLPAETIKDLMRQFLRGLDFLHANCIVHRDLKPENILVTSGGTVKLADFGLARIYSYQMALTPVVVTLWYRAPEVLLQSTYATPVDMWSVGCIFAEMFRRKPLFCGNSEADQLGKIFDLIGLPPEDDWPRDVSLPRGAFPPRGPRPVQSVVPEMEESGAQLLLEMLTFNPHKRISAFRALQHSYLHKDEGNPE
T21 sequence (P30281 whole entry partner): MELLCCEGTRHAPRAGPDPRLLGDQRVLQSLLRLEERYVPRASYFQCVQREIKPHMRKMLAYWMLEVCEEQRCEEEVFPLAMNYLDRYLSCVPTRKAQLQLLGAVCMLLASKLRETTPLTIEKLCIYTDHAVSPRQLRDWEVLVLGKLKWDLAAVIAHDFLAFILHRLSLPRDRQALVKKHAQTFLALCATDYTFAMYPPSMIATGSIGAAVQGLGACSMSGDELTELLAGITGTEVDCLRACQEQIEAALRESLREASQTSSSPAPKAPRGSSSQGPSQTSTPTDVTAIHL
T24 sequence (P54753 34-998): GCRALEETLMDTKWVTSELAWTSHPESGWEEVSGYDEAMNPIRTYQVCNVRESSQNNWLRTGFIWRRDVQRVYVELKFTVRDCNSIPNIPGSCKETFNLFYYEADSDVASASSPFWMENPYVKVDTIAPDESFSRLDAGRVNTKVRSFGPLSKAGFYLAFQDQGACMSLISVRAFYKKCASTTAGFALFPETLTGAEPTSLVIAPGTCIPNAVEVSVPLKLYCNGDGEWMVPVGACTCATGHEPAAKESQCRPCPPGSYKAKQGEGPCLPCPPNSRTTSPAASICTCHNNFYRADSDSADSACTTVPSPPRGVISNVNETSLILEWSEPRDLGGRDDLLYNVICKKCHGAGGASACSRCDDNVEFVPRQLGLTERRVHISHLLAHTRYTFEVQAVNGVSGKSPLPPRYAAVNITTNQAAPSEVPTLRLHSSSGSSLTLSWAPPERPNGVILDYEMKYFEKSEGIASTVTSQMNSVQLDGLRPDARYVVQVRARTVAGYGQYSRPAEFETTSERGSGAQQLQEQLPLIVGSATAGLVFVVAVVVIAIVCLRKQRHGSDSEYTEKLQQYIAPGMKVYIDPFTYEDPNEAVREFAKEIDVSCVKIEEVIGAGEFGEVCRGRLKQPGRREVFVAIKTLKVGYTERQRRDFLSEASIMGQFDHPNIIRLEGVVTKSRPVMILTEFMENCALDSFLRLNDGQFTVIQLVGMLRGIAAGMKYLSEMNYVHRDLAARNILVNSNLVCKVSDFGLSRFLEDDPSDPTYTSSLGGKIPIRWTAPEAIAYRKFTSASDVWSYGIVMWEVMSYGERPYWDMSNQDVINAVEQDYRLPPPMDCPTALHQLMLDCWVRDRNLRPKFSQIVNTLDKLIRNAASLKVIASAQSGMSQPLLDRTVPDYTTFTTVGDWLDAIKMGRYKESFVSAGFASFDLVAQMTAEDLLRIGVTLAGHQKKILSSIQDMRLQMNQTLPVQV
T27 sequence (Q13163 whole entry): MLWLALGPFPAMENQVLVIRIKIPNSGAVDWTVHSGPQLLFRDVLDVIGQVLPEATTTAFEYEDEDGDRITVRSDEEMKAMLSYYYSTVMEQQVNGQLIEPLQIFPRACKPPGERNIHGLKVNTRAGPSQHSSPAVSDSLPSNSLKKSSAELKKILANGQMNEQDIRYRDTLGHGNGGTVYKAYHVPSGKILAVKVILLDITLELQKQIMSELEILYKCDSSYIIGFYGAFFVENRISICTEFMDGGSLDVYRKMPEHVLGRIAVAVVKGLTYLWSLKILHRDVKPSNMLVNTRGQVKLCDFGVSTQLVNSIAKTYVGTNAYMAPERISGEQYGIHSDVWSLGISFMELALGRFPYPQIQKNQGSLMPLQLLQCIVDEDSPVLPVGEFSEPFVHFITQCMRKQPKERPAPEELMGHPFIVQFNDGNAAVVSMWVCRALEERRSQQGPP
T5 sequence (Q9UHD2 whole entry): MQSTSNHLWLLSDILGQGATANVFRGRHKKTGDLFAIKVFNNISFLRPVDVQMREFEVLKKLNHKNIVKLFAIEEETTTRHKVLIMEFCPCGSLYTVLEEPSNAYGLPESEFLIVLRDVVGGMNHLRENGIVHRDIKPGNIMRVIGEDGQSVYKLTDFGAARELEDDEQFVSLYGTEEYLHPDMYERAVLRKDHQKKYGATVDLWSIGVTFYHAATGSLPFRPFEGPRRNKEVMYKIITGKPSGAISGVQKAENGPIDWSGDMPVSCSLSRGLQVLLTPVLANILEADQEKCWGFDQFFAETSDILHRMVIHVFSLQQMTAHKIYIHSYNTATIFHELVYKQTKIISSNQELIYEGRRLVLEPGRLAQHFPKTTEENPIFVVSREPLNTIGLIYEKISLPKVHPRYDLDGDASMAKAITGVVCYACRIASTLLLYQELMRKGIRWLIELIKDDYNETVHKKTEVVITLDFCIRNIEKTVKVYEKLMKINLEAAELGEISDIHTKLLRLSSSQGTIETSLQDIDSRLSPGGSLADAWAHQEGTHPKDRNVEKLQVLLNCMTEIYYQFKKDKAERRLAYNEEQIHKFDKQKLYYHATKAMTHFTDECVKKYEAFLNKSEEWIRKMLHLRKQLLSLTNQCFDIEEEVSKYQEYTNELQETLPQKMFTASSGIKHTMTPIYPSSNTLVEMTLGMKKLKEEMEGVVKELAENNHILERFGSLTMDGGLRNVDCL

COc1ccc(OC)c(-n2nnc(S(=O)(=O)c3ccc(C(C)(C)C)cc3)c2C)c1 [SPA70]
inhibition at 10 µM (CSNK1A1): 1% | inhibition at 10 µM (PCTK3): 9% | inhibition at 10 µM (MAPKAPK5): 12% | inhibition at 10 µM (RIOK2): 0% | inhibition at 10 µM (TBK1): 0% | inhibition at 10 µM (TXK): 0% | inhibition at 10 µM (PAK2): 0% | inhibition at 10 µM (PRKCI): 0% | %Inhibition by 10 μM SPA70 (SNARK): 8% | inhibition at 10 µM (MAP3K15): 0% | inhibition at 10 µM (AURKC): 2% | inhibition at 10 µM (PCTK1): 4% | %Inhibition by 10 μM SPA70 (JNK3): 9% | inhibition at 10 µM (TAOK2): 21% | %Inhibition by 10 μM SPA70 (ARK5): 41% | inhibition at 10 µM (PRKD2): 9% | inhibition at 10 µM (MYLK2): 0% | inhibition at 10 µM (CDC2L1): 0% | inhibition at 10 µM (MUSK): 0% | inhibition at 10 µM (CDK9): 0% | inhibition at 10 µM (CDK4-cyclinD3): 19% | inhibition at 10 µM [1]: 0% | inhibition at 10 µM (CAMK4): 0% | inhibition at 10 µM (EPHB3): 0% | inhibition at 10 µM (AXL): 0% | inhibition at 10 µM (FGFR1): 0% | inhibition at 10 µM (MEK5): 8% | %Inhibition by 10 μM SPA70 (ACVR2B): 0% | inhibition at 10 µM (BLK): 11% | inhibition at 10 µM (PKN2): 0% | inhibition at 10 µM [2]: 11% | inhibition at 10 µM [3]: 0% | inhibition at 10 µM (MKNK2): 6% | %Inhibition by 10 μM SPA70 (EPHB2): 0% | inhibition at 10 µM (DCAMKL3): 0% | inhibition at 10 µM (MARK3): 2% | inhibition at 10 µM (MYO3A): 0% | %Inhibition by 10 μM SPA70 [4]: 19% | inhibition at 10 µM (DAPK1): 10% | inhibition at 10 µM (CAMK1D): 20%
